Assay results published in patent publication US9566342B2, “Compounds for treatment of heart failure” (SOLVOTRIN INNOVATIONS LIMITED, priority 2010, dated 2017).
Values joined by “and” are separate entries in the source; they are usually repeats but may differ in a detail not shown here. Equal values may be shown once.

Legend:
MMP-9 [1] = assay: PMA-stimulated CaCo2 cells, zymography of media, MMP-9; assay type: cell-based; conditions: CaCo2 cells, PMA, 150 uM
[2] = cancer patients, Phase I, cited from earlier work
MMP-2 [3] = assay: PMA stimulated breast cancer cell model (HT1080 cells), pro-MMP-2 / MMP-2; assay type: cell-based; conditions: HT1080 cells, PMA
MMP-2 [4] = biological target: T1, MMP-2 (Homo sapiens, UniProt P08253); assay: Direct inhibition of recombinant MMP-2, fluorogenic substrate; assay type: biochemical; parameters: purchased R&D Systems, Ireland; conditions: 100 μM; read-out: inhibition of recombinant human MMP-2
T1 sequence (P08253 110-660): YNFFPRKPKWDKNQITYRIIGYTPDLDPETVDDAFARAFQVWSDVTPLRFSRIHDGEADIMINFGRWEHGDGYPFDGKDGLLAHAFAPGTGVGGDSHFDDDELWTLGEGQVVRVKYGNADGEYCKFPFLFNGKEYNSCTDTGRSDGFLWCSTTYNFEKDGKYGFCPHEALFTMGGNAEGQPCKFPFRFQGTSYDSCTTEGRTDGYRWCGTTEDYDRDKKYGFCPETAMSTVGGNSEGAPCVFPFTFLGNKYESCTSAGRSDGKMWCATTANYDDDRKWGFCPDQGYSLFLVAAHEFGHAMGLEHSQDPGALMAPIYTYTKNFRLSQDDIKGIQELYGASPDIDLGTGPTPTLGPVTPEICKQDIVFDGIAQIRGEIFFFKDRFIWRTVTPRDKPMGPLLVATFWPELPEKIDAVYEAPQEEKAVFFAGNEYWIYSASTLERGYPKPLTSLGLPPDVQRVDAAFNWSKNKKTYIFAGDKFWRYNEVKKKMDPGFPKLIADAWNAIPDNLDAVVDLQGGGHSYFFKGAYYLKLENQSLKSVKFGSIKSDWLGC

MMP-9 [5] = assay: Total MMP-9 levels on repeated oral administration in non-human primates; assay type: in vivo, cynomolgus monkeys
[6] = test system: Human Peripheral Blood mononuclear cells (PBMC) stimulated with TNF-α; assay: MMPs, TIMP-1 and inflammatory markers in supernatants of PBMC stimulated with TNF-α; assay type: cell-based
MMP-9 [7] = biological target: T2, MMP-9 (Homo sapiens, UniProt P14780); assay: Direct inhibition of recombinant MMP-9, fluorogenic substrate; assay type: biochemical; parameters: purchased R&D Systems, Ireland; conditions: 100 μM; read-out: inhibition of recombinant human MMP-9
T2 sequence (P14780 94-707): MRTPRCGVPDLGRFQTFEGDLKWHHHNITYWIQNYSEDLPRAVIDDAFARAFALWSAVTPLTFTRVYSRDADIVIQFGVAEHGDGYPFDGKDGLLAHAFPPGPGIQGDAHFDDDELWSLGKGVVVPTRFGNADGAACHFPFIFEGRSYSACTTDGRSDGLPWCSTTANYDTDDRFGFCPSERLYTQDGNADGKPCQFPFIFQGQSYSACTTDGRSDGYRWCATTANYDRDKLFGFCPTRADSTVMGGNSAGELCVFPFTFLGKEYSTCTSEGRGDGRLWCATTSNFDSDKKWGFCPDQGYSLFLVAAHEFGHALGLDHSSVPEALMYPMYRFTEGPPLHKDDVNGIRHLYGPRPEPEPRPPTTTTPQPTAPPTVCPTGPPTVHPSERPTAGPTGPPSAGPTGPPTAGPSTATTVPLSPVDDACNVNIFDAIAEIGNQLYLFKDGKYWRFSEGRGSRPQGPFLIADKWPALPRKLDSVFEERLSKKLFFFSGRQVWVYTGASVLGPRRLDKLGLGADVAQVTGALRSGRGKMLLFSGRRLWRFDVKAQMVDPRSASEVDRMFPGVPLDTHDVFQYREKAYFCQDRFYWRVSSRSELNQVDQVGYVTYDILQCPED

MMP-2 [8] = assay: PMA-stimulated CaCo2 cells, zymography of media, MMP-2; assay type: cell-based; conditions: 150 uM
MMP-9 mRNA = assay: TNFα treated human cardiac fibroblasts, MMP-9 transcription (QPCR); assay type: cell-based; conditions: HCF
MMP-2 [9] = biological target: T1, MMP-2; assay: Model of direct enzyme inhibition, MMP-2 (IC50); assay type: biochemical
MMP-9 [10] = biological target: T2, MMP-9; assay: Model of direct enzyme inhibition, MMP-9 (IC50); assay type: biochemical
[11] = Plasma doxycycline and nitrite/nitrate (NOx) in non-human primates; assay type: in vivo, cynomolgus monkeys; conditions: cynomolgus monkey, po, 4.8 mg/kg doxycycline hyclate, day 3 of dosing, base equivalents, read-out: Maximum plasma doxycycline concentration (Cmax)
MMP-2 mRNA = assay: TNFα treated human cardiac fibroblasts, MMP-2 transcription (QPCR); assay type: cell-based; conditions: HCF, 10 ng/mL TNFα 72 hours, 75 or 150 μM
MMP-8 = MMP-8 (Homo sapiens, UniProt P22894); assay: Direct enzyme inhibition, MMP-8; assay type: biochemical; conditions: 100 μM
MMP-8, sequence (P22894 101-467, species assumed): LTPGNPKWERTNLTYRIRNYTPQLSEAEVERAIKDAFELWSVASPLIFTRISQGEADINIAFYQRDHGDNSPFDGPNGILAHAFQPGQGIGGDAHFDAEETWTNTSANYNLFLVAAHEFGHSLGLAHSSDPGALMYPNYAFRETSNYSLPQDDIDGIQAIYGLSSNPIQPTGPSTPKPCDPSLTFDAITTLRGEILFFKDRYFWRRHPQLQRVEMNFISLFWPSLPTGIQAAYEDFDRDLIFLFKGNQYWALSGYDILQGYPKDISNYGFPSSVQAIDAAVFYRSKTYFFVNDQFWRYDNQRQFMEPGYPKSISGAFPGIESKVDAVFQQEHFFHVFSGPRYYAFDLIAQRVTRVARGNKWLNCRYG

MMP-13 = MMP-13 (Homo sapiens, UniProt P45452); assay: Direct enzyme inhibition, MMP-13; assay type: biochemical; conditions: 100 μM
MMP-1 = biological target: T3, MMP-1 (Homo sapiens, UniProt P03956); assay: Direct enzyme inhibition, MMP-1; assay type: biochemical; conditions: 100 μM
T3 sequence (P03956 100-469): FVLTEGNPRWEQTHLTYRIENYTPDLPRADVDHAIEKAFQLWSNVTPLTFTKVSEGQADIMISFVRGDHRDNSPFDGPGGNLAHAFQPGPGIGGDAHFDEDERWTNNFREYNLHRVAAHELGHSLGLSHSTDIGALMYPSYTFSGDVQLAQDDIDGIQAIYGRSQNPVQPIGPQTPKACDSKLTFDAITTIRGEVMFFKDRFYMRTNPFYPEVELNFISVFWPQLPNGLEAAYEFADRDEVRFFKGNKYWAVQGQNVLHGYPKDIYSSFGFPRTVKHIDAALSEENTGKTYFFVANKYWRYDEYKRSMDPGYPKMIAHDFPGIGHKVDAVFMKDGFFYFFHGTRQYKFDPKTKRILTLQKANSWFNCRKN

MMP-9 [12] = assay: PMA stimulated fibrosarcoma cell model (HT1080 cells), MMP-9; assay type: cell-based; conditions: 100 micromolar
[13] = Blood pressure in non-human primates; conditions: cynomolgus monkeys, over dosing period
human colon cancer cells = assay: Colon cancer cell invasiveness, in vitro model; assay type: cell-based; conditions: low dose, FIG. 10
[14] = 75 μM, 24 hours, TNFα, mean ± SEM
[15] = 150 μM, 24 hours, TNFα, mean ± SEM

In the case of `C[C@H]1c2cccc(O)c2C(=O)C2=C(O)[C@]3(O)C(=O)C(C(N)=O)=C(O)[C@@H](N(C)C)[C@@H]3[C@@H](O)[C@@H]21` [Doxycycline, (4S,4aR,5S,5aR,6R,12aS)-4-(dimethylamino)-3,5,10,12,12a-pentahydroxy-6-methyl-1,11-dioxo-1,4,4a,5,5a,6,11,12a-octahydrotetracene-2-carboxamide, reference compound], the “suppression of MMP-9 activity relative to PMA positive control” value (MMP-9 [1]) is listed as “did not affect MMP-9 levels”, the “oral dose resulting in dose-limiting toxicity (fatigue, confusion, nausea, vomiting)” value [2] is listed as 400 mg administered twice a day and the maximum tolerated dose ([2]; oral) is listed as 300 mg twice a day. The “conversion of pro-MMP-2 to active MMP-2 (activation of MMP-2)” value (MMP-2 [3]; 100 μM) was “increase the conversion of available pro-MMP-2 to active MMP-2”, the pro-MMP-2 production (MMP-2 [3]; 100 micromolar) was “reduce pro-MMP-2 production” and the inhibition at 100 µM (MMP-2 [4]) was 34 ± 3.5%. The “total plasma MMP-9, median AUC” value (MMP-9 [5]; NHPs, daily orogastric gavage for 72 hours, n=6) was 8.7 µg·h/mL, the “change in MMP-9 from baseline to 72 hours” value (MMP-9 [5]; cynomolgus monkeys, oral gavage once daily for three days, n=6 per group) was “MMP-9 levels increase” and the “Interleukin-1β protein level in PBMC supernatant” value [6, 14] was 34.6 ± 5.8 ng/mL. The “Interleukin-4 protein level in PBMC supernatant” value [6, 14] was 9.4 ± 1.2 ng/mL, the “Interleukin-5 protein level in PBMC supernatant” value [6, 14] was 40.8 ± 9.0 ng/mL and the “Interleukin-8 protein level in PBMC supernatant” value [6, 14] was 8852 ± 2568 ng/mL. The “Interleukin-10 protein level in PBMC supernatant” value [6, 14] was 136.6 ± 74.2 ng/mL, the “Interleukin-13 protein level in PBMC supernatant” value [6, 14] was 79.6 ± 17.2 ng/mL and the “MMP-1 protein level in PBMC supernatant” value [6, 14] was 144.0 ± 80.0 ng/mL. The “MMP-2 protein level in PBMC supernatant” value [6, 14] was 61.4 ± 54.2 ng/mL, the “MMP-10 protein level in PBMC supernatant” value [6, 14] was 36.0 ± 14.0 ng/mL and the “Interleukin-1β protein level in PBMC supernatant” value [6, 15] was 30.6 ± 5.0 ng/mL. For the same molecule, the “Interleukin-4 protein level in PBMC supernatant” value [6, 15] was 9.8 ± 0.8 ng/mL, the “Interleukin-5 protein level in PBMC supernatant” value [6, 15] was 31.2 ± 5.8 ng/mL and the “Interleukin-10 protein level in PBMC supernatant” value [6, 15] was 92.2 ± 33.8 ng/mL. For the same molecule, the “Interleukin-13 protein level in PBMC supernatant” value [6, 15] was 80.2 ± 3.2 ng/mL, the “MMP-1 protein level in PBMC supernatant” value [6, 15] was 134 ± 48 ng/mL and the “MMP-2 protein level in PBMC supernatant” value [6, 15] was 96.8 ± 80.6 ng/mL. The “MMP-10 protein level in PBMC supernatant” value [6, 15] was 47.6 ± 15.8 ng/mL, the “IL-8 levels in TNFalpha stimulated PBMCs (admixture study, FIG. 14)” value ([6]; 150 micromolar) was “also reduce IL-8 levels compared to controls” and the inhibition at 100 µM (MMP-9 [7]) was 33.3 ± 3.5%. For the same molecule, the “inhibition of MMP-2 activity relative to PMA positive control” value (MMP-2 [8]) was 80%, the “MMP-9 protein levels in treated cell supernatants” value (MMP-9 mRNA) was “below the lower limit of quantification” and the “TNFα induced upregulation of MMP-9 mRNA” value (MMP-9 mRNA; 10 ng/mL TNFα 72 hours, 75 or 150 μM) was “In contrast to doxycycline hyclate, SI1004 significantly inhibited”. The IC50 (MMP-2 [9]) was ~129 µM and 129 µM, the IC50 (MMP-9 [10]) was ~164 µM and 164 µM and the Cmax [11] was 5.1 µM. The “MMP-2 mRNA expression” value (MMP-2 mRNA) was “no significant effects”, the inhibition at 100 µM (MMP-8) was ~42.7% and the inhibition at 100 µM (MMP-13) was ~54%. For the same molecule, the inhibition at 100 µM (MMP-1) was ~12%, the MMP-9 production (MMP-9 [12]) was “reduce MMP-9 production” and the diastolic blood pressure [13] was 58.6±6.0 mmHg. For the same molecule, the “mean systolic blood pressure” value [13] was 109.7±7.1 mmHg and the “colon cancer cell invasiveness” value (human colon cancer cells) was “does not reduce colon cancer cell invasiveness”.

`C[C@H]1c2cccc(O)c2C(=O)C2=C(O)[C@]3(O)C(=O)C(C(=O)NCN4CCC(CO[N+](=O)[O-])CC4)=C(O)[C@@H](N(C)C)[C@@H]3[C@@H](O)[C@@H]21` [Example 7, amido-N-[4-(nitrooxymethyl)piperidinomethyl]-α-6-deoxy-5-oxytetracycline] gave a melting point of 130 to 132 °C.
